According to ChEMBL document CHEMBL3217491, “Design, synthesis and biological evaluation of imidazopyridine/pyrimidine-chalcone derivatives as potential anticancer agents” (2010):

Tests used:
Format in all cases: functional
[1] = Growth inhibition of human UACC62 cells after 48 hrs by SRB assay; conditions: UACC-62, 48 h
U-251 = assay: Growth inhibition of human U251 cells after 48 hrs by SRB assay; conditions: U-251, 48 h
786-0 = assay: Growth inhibition of human 786-0 cells after 48 hrs by SRB assay; conditions: 786-0, 48 h
NCI-H23 = assay: Growth inhibition of human NCI-H23 cells after 48 hrs by SRB assay; conditions: NCI-H23, 48 h
K562 = assay: Growth inhibition of human K562 cells after 48 hrs by SRB assay; conditions: K562, 48 h
M14 = assay: Growth inhibition of human M14 cells after 48 hrs by SRB assay; conditions: M14, 48 h
[2] = Growth inhibition of human UO31 cells after 48 hrs by SRB assay; conditions: UO-31, 48 h
SK-MEL-5 = assay: Growth inhibition of human SK-MEL-5 cells after 48 hrs by SRB assay; conditions: SK-MEL-5, 48 h
NCI-H322M = assay: Growth inhibition of human NCI-H322M cells after 48 hrs by SRB assay
[3] = Growth inhibition of human HCT15 cells after 48 hrs by SRB assay; conditions: HCT-15, 48 h
SF-268 = assay: Growth inhibition of human SF268 cells after 48 hrs by SRB assay; conditions: SF-268, 48 h
IGROV-1 = assay: Growth inhibition of human IGROV1 cells after 48 hrs by SRB assay; conditions: IGROV-1, 48 h
MCF7 = assay: Growth inhibition of human MCF7 cells after 48 hrs by SRB assay; conditions: MCF7, 48 h
NCI-H226 = assay: Growth inhibition of human NCI-H226 cells after 48 hrs by SRB assay; conditions: NCI-H226, 48 h
[4] = Growth inhibition of human MOLT4 cells after 48 hrs by SRB assay; conditions: MOLT-4, 48 h
[5] = Growth inhibition of human BT549 cells after 48 hrs by SRB assay; conditions: BT-549, 48 h
HCT-116 = assay: Growth inhibition of human HCT116 cells after 48 hrs by SRB assay; conditions: HCT-116, 48 h
[6] = Growth inhibition of human OVCAR8 cells after 48 hrs by SRB assay; conditions: OVCAR-8, 48 h
MDA-MB-468 = assay: Growth inhibition of human MDA-MB-468 cells after 48 hrs by SRB assay; conditions: MDA-MB-468, 48 h
SK-MEL-28 = assay: Growth inhibition of human SK-MEL-28 cells after 48 hrs by SRB assay; conditions: SK-MEL-28, 48 h
A498 = assay: Growth inhibition of human A498 cells after 48 hrs by SRB assay; conditions: A498, 48 h
[7] = Growth inhibition of human EKVX cells after 48 hrs by SRB assay
SW-620 = assay: Growth inhibition of human SW620 cells after 48 hrs by SRB assay; conditions: SW-620, 48 h
NCI-H522 = assay: Growth inhibition of human NCI-H522 cells after 48 hrs by SRB assay; conditions: NCI-H522, 48 h
[8] = Growth inhibition of human SF539 cells after 48 hrs by SRB assay; conditions: SF-539, 48 h
HL-60(TB) = assay: Growth inhibition of human HL-60(TB) cells after 48 hrs by SRB assay; conditions: HL-60, 48 h
SK-MEL-2 = assay: Growth inhibition of human SK-MEL-2 cells after 48 hrs by SRB assay; conditions: SK-MEL-2, 48 h
[9] = Growth inhibition of human NCI-ADR-RES cells after 48 hrs by SRB assay
SK-OV-3 = assay: Growth inhibition of human SKOV3 cells after 48 hrs by SRB assay; conditions: SK-OV-3, 48 h
A549 = assay: Growth inhibition of human A549 cells after 48 hrs by SRB assay; conditions: A549, 48 h
COLO 205 = assay: Growth inhibition of human COLO205 cells after 48 hrs by SRB assay; conditions: COLO 205, 48 h
CCRF-CEM = assay: Growth inhibition of human CCRF-CEM cells after 48 hrs by SRB assay
SN12C = assay: Growth inhibition of human SN12C cells after 48 hrs by SRB assay
[10] = Growth inhibition of human LOXIMVI cells after 48 hrs by SRB assay; conditions: LOX IMVI
MDA-MB-435 = assay: Growth inhibition of human MDA-MB-435 cells after 48 hrs by SRB assay; conditions: MDA-MB-435, 48 h
PC-3 = assay: Growth inhibition of human PC3 cells after 48 hrs by SRB assay; conditions: PC-3, 48 h
RPMI-8226 = assay: Growth inhibition of human RPMI8226 cells after 48 hrs by SRB assay; conditions: RPMI-8226, 48 h
MDA-MB-231 = assay: Growth inhibition of human MDA-MB-231 cells after 48 hrs by SRB assay; conditions: MDA-MB-231, 48 h
TK-10 = assay: Growth inhibition of human TK10 cells after 48 hrs by SRB assay; conditions: TK-10, 48 h
HOP-62 = assay: Growth inhibition of human HOP62 cells after 48 hrs by SRB assay; conditions: HOP-62, 48 h
[11] = Growth inhibition of human OVCAR5 cells after 48 hrs by SRB assay; conditions: OVCAR-5, 48 h
[12] = Growth inhibition of human OVCAR4 cells after 48 hrs by SRB assay; conditions: OVCAR-4, 48 h
CAKI-1 = assay: Growth inhibition of human Caki1 cells after 48 hrs by SRB assay; conditions: CAKI-1, 48 h
Malme-3M = assay: Growth inhibition of human MALME-3M cells after 48 hrs by SRB assay
T47D = assay: Growth inhibition of human T47D cells after 48 hrs by SRB assay
DU-145 = assay: Growth inhibition of human DU145 cells after 48 hrs by SRB assay; conditions: DU-145, 48 h
[13] = Growth inhibition of human SF295 cells after 48 hrs by SRB assay; conditions: SF-295, 48 h
[14] = Growth inhibition of human Hs578T cells after 48 hrs by SRB assay; conditions: Hs-578T
[15] = Growth inhibition of human UACC257 cells after 48 hrs by SRB assay; conditions: UACC-257, 48 h
[16] = Growth inhibition of human OVCAR3 cells after 48 hrs by SRB assay; conditions: OVCAR-3, 48 h
[17] = Growth inhibition of human HCC2998 cells after 48 hrs by SRB assay; conditions: HCC 2998, 48 h
SNB-75 = assay: Growth inhibition of human SNB75 cells after 48 hrs by SRB assay; conditions: SNB-75, 48 h
SR = assay: Growth inhibition of human SR cells after 48 hrs by SRB assay
SNB-19 = assay: Growth inhibition of human SNB19 cells after 48 hrs by SRB assay; conditions: SNB-19, 48 h
KM12 = assay: Growth inhibition of human KM12 cells after 48 hrs by SRB assay; conditions: KM12, 48 h
NCI-H460 = assay: Growth inhibition of human NCI-H460 cells after 48 hrs by SRB assay; conditions: NCI-H460, 48 h
ACHN = assay: Growth inhibition of human ACHN cells after 48 hrs by SRB assay
HT-29 = assay: Growth inhibition of human HT-29 cells after 48 hrs by SRB assay; conditions: HT-29, 48 h

Q: Which GI50 [1] does the source give for COc1ccc(-c2nc3ccccn3c2/C=C/C(=O)c2cc(OC)c(OC)c(OC)c2)cc1OC here?
A: Its GI50 is 4860 nM.

Q: And the GI50 (U-251)?
A: The GI50 was 2910 nM.

Q: And the GI50 (786-0)?
A: Its GI50 is 3740 nM.

Q: And the GI50 (NCI-H23)?
A: The GI50 was 3780 nM.

Q: What about the GI50 (K562) of the same molecule?
A: Its GI50 is 2990 nM.

Q: And the GI50 (M14)?
A: The GI50 was 4480 nM.

Q: What about the GI50 [2] of the same molecule?
A: The GI50 was 550 nM.

Q: And the GI50 (SK-MEL-5)?
A: Its GI50 is 1500 nM.

Q: What about the GI50 (NCI-H322M) of the same molecule?
A: The GI50 was 2080 nM.

Q: And the GI50 [3]?
A: Its GI50 is 3730 nM.

Q: And the GI50 (SF-268)?
A: Its GI50 is 3580 nM.

Q: And the GI50 (IGROV-1)?
A: The GI50 was 3030 nM.

Q: And the GI50 (MCF7)?
A: The GI50 was 2760 nM.

Q: And the GI50 (NCI-H226)?
A: The GI50 was 6100 nM.

Q: What about the GI50 [4] of the same molecule?
A: The GI50 was 2180 nM.

Q: And the GI50 [5]?
A: The GI50 was 890 nM.

Q: What about the GI50 (HCT-116) of the same molecule?
A: Its GI50 is 2620 nM.

Q: What about the GI50 [6] of the same molecule?
A: The GI50 was 2830 nM.

Q: What about the GI50 (MDA-MB-468) of the same molecule?
A: Its GI50 is 2280 nM.

Q: And the GI50 (SK-MEL-28)?
A: The GI50 was 3300 nM.

Q: And the GI50 (A498)?
A: Its GI50 is 2930 nM.

Q: And the GI50 [7]?
A: The GI50 was 1710 nM.

Q: And the GI50 (SW-620)?
A: The GI50 was 2780 nM.

Q: And the GI50 (NCI-H522)?
A: Its GI50 is 2740 nM.

Q: What about the GI50 [8] of the same molecule?
A: The GI50 was 2710 nM.

Q: And the GI50 (HL-60(TB))?
A: The GI50 was 2530 nM.

Q: What about the GI50 (SK-MEL-2) of the same molecule?
A: The GI50 was 2370 nM.

Q: And the GI50 [9]?
A: The GI50 was 2180 nM.

Q: And the GI50 (SK-OV-3)?
A: The GI50 was 4920 nM.

Q: What about the GI50 (A549) of the same molecule?
A: The GI50 was 3860 nM.

Q: And the GI50 (COLO 205)?
A: Its GI50 is 3920 nM.

Q: And the GI50 (CCRF-CEM)?
A: Its GI50 is 1540 nM.

Q: And the GI50 (SN12C)?
A: Its GI50 is 4100 nM.

Q: What about the GI50 [10] of the same molecule?
A: The GI50 was 2260 nM.

Q: And the GI50 (MDA-MB-435)?
A: Its GI50 is 1780 nM.

Q: What about the GI50 (PC-3) of the same molecule?
A: The GI50 was 3710 nM.

Q: And the GI50 (RPMI-8226)?
A: The GI50 was 390 nM.

Q: What about the GI50 (MDA-MB-231) of the same molecule?
A: The GI50 was 3280 nM.

Q: And the GI50 (TK-10)?
A: The GI50 was 3280 nM.

Q: And the GI50 (HOP-62)?
A: Its GI50 is 4420 nM.

Q: What about the GI50 [11] of the same molecule?
A: The GI50 was 7380 nM.

Q: And the GI50 [12]?
A: The GI50 was 2430 nM.

Q: And the GI50 (CAKI-1)?
A: Its GI50 is 1390 nM.

Q: And the GI50 (Malme-3M)?
A: The GI50 was 2360 nM.

Q: And the GI50 (T47D)?
A: Its GI50 is 3010 nM.

Q: What about the GI50 (DU-145) of the same molecule?
A: Its GI50 is 2630 nM.

Q: And the GI50 [13]?
A: The GI50 was 1850 nM.

Q: What about the GI50 [14] of the same molecule?
A: The GI50 was 1850 nM.

Q: And the GI50 [15]?
A: Its GI50 is 3240 nM.

Q: And the GI50 [16]?
A: Its GI50 is 2470 nM.

Q: What about the GI50 [17] of the same molecule?
A: Its GI50 is 3800 nM.

Q: And the GI50 (SNB-75)?
A: The GI50 was 3920 nM.

Q: And the GI50 (SR)?
A: The GI50 was 1900 nM.

Q: What about the GI50 (SNB-19) of the same molecule?
A: The GI50 was 4910 nM.

Q: And the GI50 (KM12)?
A: The GI50 was 2520 nM.

Q: And the GI50 (NCI-H460)?
A: Its GI50 is 2990 nM.

Q: And the GI50 (ACHN)?
A: Its GI50 is 3220 nM.

Q: What about the GI50 (HT-29) of the same molecule?
A: The GI50 was 3200 nM.
